# Laboratory results as given in US20260356856A1, “KRAS G12S AND G12C INHIBITORS” (MIRATI THERAPEUTICS, INC., priority 2023, published 2026).
# Legend:
# KRas G12C = target: T1, KRas G12C (Homo sapiens, UniProt P01116, G12C); test: KRas binding assay, TR-FRET displacement of Cy5 labelled tracer; conditions: 60-minute incubation at room temperature, 1% DMSO, pH 7.5
# T1 construct: Biotinylated KRas (corresponding to amino acids 1-169, produced at Accelegan Inc.); biotin (biotinylated); purchased Accelegan Inc
# Summary of the method: (§1)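 Each mutant protein, a biotinylated 1-169 construct, was combined with terbium streptavidin, tracer and compound. After sixty minutes at room temperature TR-FRET was recorded. POC data were fitted with a four-parameter IC50 model.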
# KRas WT = target: T2, KRas WT (Homo sapiens, UniProt P01116); test: as above; conditions: 60-minute incubation at room temperature, 1% DMSO, pH 7.5
# T2 construct: Biotinylated KRas (corresponding to amino acids 1-169, produced at Accelegan Inc.); biotin (biotinylated); purchased Accelegan Inc
# Summary of the method: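 IC50 came from fitting POC values with a four-parameter equation. Signal was read after one hour at room temperature. Protein was biotin-tagged KRas 1-169 captured by terbium streptavidin, with compound in 1% DMSO (final).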
# KRas G12S = target: T3, KRas G12S (Homo sapiens, UniProt P01116, G12S); test: as above; conditions: 60-minute incubation at room temperature, 1% DMSO, pH 7.5
# T3 construct: Biotinylated KRas (corresponding to amino acids 1-169, produced at Accelegan Inc.); biotin (biotinylated); purchased Accelegan Inc
# Summary of the method: as §1
# [1] = target: T4, KRas-mediated phosphorylation of ERK in H358 cells (Homo sapiens, UniProt P01116, G12C); test: Inhibition of KRas-mediated phosphorylation of ERK (HTRF), H358 cells; type: cell-based; conditions: HTRF pERK, 3 h incubation
# T4 construct: pERK HTRF read-out
# [2] = target: T5, KRas-mediated phosphorylation of ERK in A549 cells (Homo sapiens, UniProt P01116, G12S); test: Inhibition of KRas-mediated phosphorylation of ERK (HTRF), A549 cells; type: cell-based; conditions: HTRF pERK, 3 h incubation
# T5 construct: pERK HTRF read-out
# [3] = target: T6, KRas-mediated phosphorylation of ERK in MKN1 cells (Homo sapiens, UniProt P01116); test: Inhibition of KRas-mediated phosphorylation of ERK (HTRF), MKN1 cells; type: cell-based; conditions: MKN1 cells (KRas WT); HTRF pERK; 3 h incubation
# T6 construct: pERK HTRF read-out
# Procedure: Inhibition of KRas Phosphorylation of ERK (HTRF) by Exemplary Compounds of Formula (Ia) or (Ib)
# Cisbio HTRF Advanced pERK Assay Catalog #64AERPEH • Cells: MKN1, PSN1 • Procedure: • 1. Day 1: Seed 6,000 cells/well −25 μl/well in 384-well white solid bottom plate; RPM1_10% FBS. Incubate overnight at 37 °C/5% CO2. • 2.
# T3 sequence (P01116 1-169 isoform P01116-2 G12S): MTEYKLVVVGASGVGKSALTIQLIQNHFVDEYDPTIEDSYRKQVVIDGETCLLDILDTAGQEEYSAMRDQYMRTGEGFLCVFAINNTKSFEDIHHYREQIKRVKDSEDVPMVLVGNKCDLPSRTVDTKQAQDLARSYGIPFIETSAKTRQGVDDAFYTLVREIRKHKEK
# T2 sequence (P01116 1-169 isoform P01116-2): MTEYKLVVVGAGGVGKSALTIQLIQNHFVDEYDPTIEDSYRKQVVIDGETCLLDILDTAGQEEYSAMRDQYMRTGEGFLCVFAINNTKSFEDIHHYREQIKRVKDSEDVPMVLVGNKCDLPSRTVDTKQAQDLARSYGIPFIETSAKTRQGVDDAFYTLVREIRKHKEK
# T5 sequence (P01116 1-188 isoform P01116-2 G12S): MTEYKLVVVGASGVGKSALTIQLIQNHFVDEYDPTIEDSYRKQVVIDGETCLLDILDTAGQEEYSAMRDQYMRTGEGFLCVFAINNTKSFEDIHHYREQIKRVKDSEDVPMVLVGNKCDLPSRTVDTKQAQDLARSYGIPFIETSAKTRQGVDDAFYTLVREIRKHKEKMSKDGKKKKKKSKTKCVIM
# T1 sequence (P01116 1-169 isoform P01116-2 G12C): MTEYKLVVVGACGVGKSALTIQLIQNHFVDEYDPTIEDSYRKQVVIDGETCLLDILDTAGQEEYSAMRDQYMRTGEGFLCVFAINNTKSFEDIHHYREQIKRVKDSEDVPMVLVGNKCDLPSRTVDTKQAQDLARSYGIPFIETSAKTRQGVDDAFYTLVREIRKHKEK
# T6 sequence (P01116 1-188 isoform P01116-2): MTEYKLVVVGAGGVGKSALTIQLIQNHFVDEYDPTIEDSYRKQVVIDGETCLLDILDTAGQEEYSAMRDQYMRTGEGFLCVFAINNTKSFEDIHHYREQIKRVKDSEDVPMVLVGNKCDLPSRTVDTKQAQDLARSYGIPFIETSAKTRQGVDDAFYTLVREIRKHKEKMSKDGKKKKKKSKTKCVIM
# T4 sequence (P01116 1-188 isoform P01116-2 G12C): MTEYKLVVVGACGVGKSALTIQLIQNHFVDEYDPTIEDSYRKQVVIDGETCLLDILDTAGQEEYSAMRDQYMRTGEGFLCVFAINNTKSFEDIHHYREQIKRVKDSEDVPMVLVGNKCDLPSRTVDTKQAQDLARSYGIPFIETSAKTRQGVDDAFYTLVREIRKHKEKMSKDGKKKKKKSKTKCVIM
Compound,IC50 (KRas G12C) [nM],IC50 (KRas WT) [nM],IC50 (KRas G12S) [nM],IC50 [1] [nM],IC50 [2] [nM],IC50 [3] [nM]
"CCc1c(F)ccc2cc(O)cc(-c3ncc4c(N5CCC(C=O)CC5)nc(OC[C@@]56CCCN5C[C@H](F)C6)nc4c3F)c12 [Example 15, 1-(7-(8-ethyl-7-fluoro-3-hydroxynaphthalen-1-yl)-8-fluoro-2-(((2R,7aS)-2-fluorotetrahydro-1H-pyrrolizin-7a(5H)-yl)methoxy)pyrido[4,3-d]pyrimidin-4-yl)piperidine-4-carbaldehyde]",< 2,11,9,22,149,–
"CCc1c(F)ccc2cc(O)cc(-c3ncc4c(N5CCC(C(=O)Oc6ccc(F)c(F)c6)CC5)nc(OC[C@@]56CCCN5C[C@H](F)C6)nc4c3F)c12 [Example 40, 3,4-difluorophenyl 1-(7-(8-ethyl-7-fluoro-3-hydroxynaphthalen-1-yl)-8-fluoro-2-(((2R,7aS)-2-fluorotetrahydro-1H-pyrrolizin-7a(5H)-yl)methoxy)pyrido[4,3-d]pyrimidin-4-yl)piperidine-4-carboxylate]",9,729,1250,913,> 10000,–
"CCc1c(F)ccc2cc(O)cc(-c3ncc4c(N5CCC(C(=O)n6ccc(C)n6)C5)nc(OC[C@@]56CCCN5C[C@H](F)C6)nc4c3F)c12 (stereo partly drawn) [Example 56, (1-(7-(8-ethyl-7-fluoro-3-hydroxynaphthalen-1-yl)-8-fluoro-2-(((2R,7aS)-2-fluorotetrahydro-1H-pyrrolizin-7a(5H)-yl)methoxy)pyrido[4,3-d]pyrimidin-4-yl)pyrrolidin-3-yl)(3-methyl-1H -pyrazol-1-yl)methanone]",13,69,17,2800,66,–
"CCc1c(F)ccc2cc(O)cc(-c3ncc4c(N5CCN(C(=O)n6cccn6)CC5)nc(OC[C@@]56CCCN5C[C@H](F)C6)nc4c3F)c12 [Example 60, (4-(7-(8-ethyl-7-fluoro-3-hydroxynaphthalen-1-yl)-8-fluoro-2-(((2R,7aS)-2-fluorotetrahydro-1H-pyrrolizin-7a(5H)-yl)methoxy)pyrido[4,3-d]pyrimidin-4-yl)piperazin-1-yl)(1H-pyrazol-1-yl) methanone]",76,24,115,450,2350,–
"CCc1c(F)ccc2cc(O)cc(-c3ncc4c(N5CCC(C(=O)N(C)c6ccccn6)CC5)nc(OC[C@@]56CCCN5C[C@H](F)C6)nc4c3F)c12 [Example 62, 1-(7-(8-ethyl-7-fluoro-3-hydroxynaphthalen-1-yl)-8-fluoro-2-(((2R,7aS)-2-fluorotetrahydro-1H-pyrrolizin-7a(5H)-yl)methoxy)pyrido[4,3-d]pyrimidin-4-yl)-N-methyl-N-(pyridin-2-yl)piperidine-4-carboxamide]",619,64,6330,8390,7060,–
"CCc1c(F)ccc2cc(O)cc(N3CCc4c(nc(OC[C@@]56CCCN5C[C@H](F)C6)nc4NCCCC(=O)n4ccc(C)n4)C3)c12 [Example 193, 4-((7-(8-ethyl-7-fluoro-3-hydroxynaphthalen-1-yl)-2-(((2R,7aS)-2-fluorotetrahydro-1H-pyrrolizin-7a(5H)-yl)methoxy)-5,6,7,8-tetrahydropyrido[3,4-d]pyrimidin-4-yl)amino)-1-(3-methyl-1H-pyrazol-1-yl) butan-1-one]",5,113,11,–,230,2140
"CON(C)C(=O)CCCN(C)c1nc(OC[C@@]23CCCN2C[C@H](F)C3)nc2c(F)c(-c3ccc(F)c4sc(N)c(C#N)c34)c(Cl)cc12 [Example 233, 4-((7-(2-amino-3-cyano-7-fluorobenzo[b]thiophen-4-yl)-6-chloro-8-fluoro-2-(((2R,7aS)-2-fluorotetrahydro-1H-pyrrolizin-7a(5H)-yl)methoxy)quinazolin-4-yl)(methyl)amino)-N-methoxy-N-methylbutanamide]",6,11,8,–,278,83
"CCc1c(F)ccc2cc(O)cc(-c3ncc4c(N(C)CCCC(=O)N(C)C(C)=O)nc(OC[C@@]56CCCN5C[C@@]5(CC5(F)F)C6)nc4c3F)c12 [Example 293, N-acetyl-4-((2-(((1S,7a'S)-2,2-difluorodihydro-1′H,3′H-spiro[cyclopropane-1,2′-pyrrolizin]-7a′ (5′H)-yl)methoxy)-7-(8-ethyl-7-fluoro-3-hydroxynaphthalen-1-yl)-8-fluoropyrido[4,3-d]pyrimidin-4-yl)(methyl)amino)-N-methylbutanamide]",72,219,21,–,67,699

# Continued by falling IC50 (KRas G12C), values first:
IC50 (KRas G12C) [nM],IC50 (KRas WT) [nM],IC50 (KRas G12S) [nM],IC50 [1] [nM],IC50 [2] [nM],IC50 [3] [nM],Compound
40,11,33,–,1360,127,"N#Cc1c(N)sc2c(F)ccc(-c3c(Cl)cc4c(N5CCN(S(=O)(=O)n6cnnc6)CC5)nc(OC[C@@]56CCCN5C[C@H](F)C6)nc4c3F)c12 [Example 187, 4-(4-(4-((4H-1,2,4-triazol-4-yl)sulfonyl)piperazin-1-yl)-6-chloro-8-fluoro-2-(((2R,7aS)-2-fluorotetrahydro-1H-pyrrolizin-7a(5H)-yl)methoxy)quinazolin-7-yl)-2-amino-7-fluorobenzo[b]thiophene-3-carbonitrile]"
40,55,45,–,> 10000,2200,"CCc1c(F)ccc2cc(O)cc(N3CCc4c(nc(OC[C@@]56CCCN5C[C@H](F)C6)nc4N(C)CCC(=O)n4ccc(C)n4)C3)c12 [Example 196, 3-((7-(8-ethyl-7-fluoro-3-hydroxynaphthalen-1-yl)-2-(((2R,7aS)-2-fluorotetrahydro-1H-pyrrolizin-7a(5H)-yl)methoxy)-5,6,7,8-tetrahydropyrido[3,4-d]pyrimidin-4-yl)(methyl)amino)-1-(3-methyl-1H-pyrazol-1-yl) propan-1-one]"
21,176,28,–,164,4950,"CCc1c(F)ccc2cc(O)cc(N3CCc4c(nc(OC[C@@]56CCCN5C[C@H](F)C6)nc4N4CCC(C(=O)n5ccc(C)n5)C4)C3)c12 (stereo partly drawn) [Example 197, (1-(7-(8-ethyl-7-fluoro-3-hydroxynaphthalen-1-yl)-2-(((2R,7aS)-2-fluorotetrahydro-1H-pyrrolizin-7a(5H)-yl)methoxy)-5,6,7,8-tetrahydropyrido[3,4-d]pyrimidin-4-yl)pyrrolidin-3-yl)(3-methyl-1H-pyrazol-1-yl)methanone]"
4,209,7,–,130,766,"CCc1c(F)ccc2cc(O)cc(N3CCc4c(nc(OC[C@@]56CCCN5C[C@H](F)C6)nc4N(C)CCCC(=O)n4ccc(C)n4)C3)c12 [Example 194, 4-((7-(8-ethyl-7-fluoro-3-hydroxynaphthalen-1-yl)-2-(((2R,7aS)-2-fluorotetrahydro-1H-pyrrolizin-7a(5H)-yl)methoxy)-5,6,7,8-tetrahydropyrido[3,4-d]pyrimidin-4-yl)(methyl)amino)-1-(3-methyl-1H-pyrazol-1-yl) butan-1-one]"
